Experimental data reported in patent publication US7078418B1, “1-aziridino-1-hydroxyiminomethyl-derivates, method for the production thereof and medicaments containing said compounds” (priority 1999, dated 2006).
In brackets after ≈: the same amount, converted by molar mass.

What was measured:
1138 L = assay: monolayer cytotoxicity test (modified propidium iodide assay), 1138 L; format: cell-based; settings: Uterus
From the text: (§1) The compounds pursuant to the invention with the general formula I show antitumoral activity. The antitumoral activities of some compounds pursuant to the invention in the monolayer cytotoxicity test on selected cell lines are shown in Table 1. The low susceptibility of fibroblasts and endothelial cells with the use of the compounds pursuant to the invention is surprising.

HT29 = assay: monolayer cytotoxicity test (modified propidium iodide assay), HT29; format: cell-based; settings: for IC50 antitumoral activity: Colon
From the text: as §1

GXF 251L = assay: monolayer cytotoxicity test (modified propidium iodide assay), GXF 251L; format: cell-based; settings: Stomach
From the text: as §1

401 NL = assay: monolayer cytotoxicity test (modified propidium iodide assay), 401 NL; format: cell-based; settings: Breast
From the text: as §1

944 LL = assay: monolayer cytotoxicity test (modified propidium iodide assay), 944 LL; format: cell-based; settings: Kidney
From the text: as §1

LXFL 529 = assay: monolayer cytotoxicity test (modified propidium iodide assay), LXFL 529; format: cell-based; settings: Lung
From the text: as §1

[1] = system: 12 tumor cell lines (Table 3); assay: cells; settings: read-out: mean IC50
[2] = system: 12 tumor cell lines (Table 3); settings: mean over 12 cell lines of Table 3
[3] = read-out: IC50 antitumoral activity

Row | Compound | IC50 (1138 L; [3]) | IC50 (HT29; Homo sapiens, HT-29, Colon, read-out: IC50 antitumoral activity) | IC50 (GXF 251L; [3]) | IC50 (401 NL; [3]) | IC50 (944 LL; [3]) | IC50 (LXFL 529; Homo sapiens, read-out: IC50 antitumoral activity) | IC50 [1] | IC50 antitumoral activity (1138 L) | mean IC50 [2] | IC50 antitumoral activity (HT29) | IC50 antitumoral activity (GXF 251L) | IC50 antitumoral activity (401 NL) | IC50 antitumoral activity (944 LL) | IC50 antitumoral activity (LXFL 529)
1 | O/N=C(/C(=N/O)N1CC1)N1CC1 [Compound 1, 1,1′-[1,2-bis(hydroxyimino)-1,2-ethanediyl]bisaziridine] | 0.173 µg/mL (≈ 1.02 µM) | 0.486 µg/mL (≈ 2.86 µM) | 0.781 µg/mL (≈ 4.59 µM) | 0.04 µg/mL (≈ 0.235 µM) | 0.923 µg/mL (≈ 5.42 µM) | 0.441 µg/mL (≈ 2.59 µM) |  |  |  |  |  |  |  | 
2 | O=c1[nH]cc(F)c(=O)[nH]1 [Compound 5FU, 5-fluorouracil] |  |  |  |  |  |  | 0.054 µg/mL (≈ 0.415 µM) |  |  |  |  |  |  | 
3 | ON=C(c1cccc(C(=NO)N2CC2)n1)N1CC1 [Compound 6, 2,6-Bis(1-aziridino-1-hydroxyiminomethyl)pyridine] |  |  |  |  |  |  |  | 0.014 µg/mL (≈ 0.0566 µM) | 0.030 µg/mL | 0.117 µg/mL (≈ 0.473 µM) | 0.020 µg/mL (≈ 0.0809 µM) | 0.207 µg/mL (≈ 0.837 µM) | 0.115 µg/mL (≈ 0.465 µM) | 0.027 µg/mL (≈ 0.109 µM)
4 | ON=C(c1ccc(C(=NO)N2CC2)cc1)N1CC1 [Compound 7, 1,4-Bis(1-aziridino-1-hydroxyiminomethyl)benzene] |  |  |  |  |  |  |  | 0.038 µg/mL (≈ 0.154 µM) |  | 0.258 µg/mL (≈ 1.05 µM) | 0.542 µg/mL (≈ 2.2 µM) | 0.018 µg/mL (≈ 0.0731 µM) | 0.348 µg/mL (≈ 1.41 µM) | 0.038 µg/mL (≈ 0.154 µM)
5 | ON=C(c1cccc(C(=NO)N2CC2)c1)N1CC1 [Compound 9, 1,3-Bis(1-aziridino-1-hydroxyiminomethyl)benzene] |  |  |  |  |  |  |  | 0.066 µg/mL (≈ 0.268 µM) |  | 0.329 µg/mL (≈ 1.34 µM) | 1.506 µg/mL (≈ 6.12 µM) | 0.060 µg/mL (≈ 0.244 µM) | 0.788 µg/mL (≈ 3.2 µM) | 0.063 µg/mL (≈ 0.256 µM)
6 | ON=C(c1cc(C(=NO)N2CC2)cc(C(=NO)N2CC2)c1)N1CC1 [Compound 10, 1,3,5-Tris(1-aziridino-1-hydroxyiminomethyl)benzene] |  |  |  |  |  |  |  | 0.111 µg/mL (≈ 0.336 µM) |  | 0.670 µg/mL (≈ 2.03 µM) | 3.964 µg/mL (≈ 12 µM) | 0.043 µg/mL (≈ 0.13 µM) | 0.750 µg/mL (≈ 2.27 µM) | 0.100 µg/mL (≈ 0.303 µM)
7 | ON=C(c1ccc(C(=NO)N2CC2)nc1)N1CC1 [Compound 14, 2,5-Bis(1-aziridino-1-hydroxyiminomethyl)pyridine] |  |  |  |  |  |  |  | 0.034 µg/mL (≈ 0.138 µM) |  | 0.200 µg/mL (≈ 0.809 µM) | 0.717 µg/mL (≈ 2.9 µM) | 0.011 µg/mL (≈ 0.0445 µM) | 0.198 µg/mL (≈ 0.801 µM) | 0.006 µg/mL (≈ 0.0243 µM)
8 | ON=C(c1ccc(C(=NO)N2CC2)o1)N1CC1 [Compound 16, 2,5-Bis(1-aziridino-1-hydroxyiminomethyl)furan] |  |  |  |  |  |  |  | 0.073 µg/mL (≈ 0.309 µM) |  | 0.481 µg/mL (≈ 2.04 µM) | 1.661 µg/mL (≈ 7.03 µM) | 0.039 µg/mL (≈ 0.165 µM) | 1.359 µg/mL (≈ 5.75 µM) | 0.099 µg/mL (≈ 0.419 µM)
